Assay results from patent publication US10526662B2, “FALZ for use as a target for therapies to treat cancer” (Sutter Bay Hospitals, priority 2013, dated 2020).

Experiments:
BPTF [1] = assay: qRT-PCR of BPTF expression in B16-F10 cells; format: cell-based; settings: B16-F10 murine melanoma cells, mRNA level
Protocol: (§1) mRNAs were assayed using the TaqMan Gene Expression Assays in accordance with the manufacturer's instructions (Applied Biosystems). TaqMan probes for BPTF, HPRT1, CCND2, BCL-XL, TWIST1, RAB14, CEBPB, CHI3L1, DLL3, OLIG2, PDGFRA and BCL2 were purchased from Applied Biosystems (Foster City, Calif.).
(§2) Selected shRNAs cloned into the pLKO1-vector were co-transfected into 293T cells along with expression vectors containing the GAG/POL, REV and VSVG genes. Lentiviruses were harvested 48 hrs after transfection. Sub-confluent human melanoma or glioblastoma cells were infected with each harvested lentiviruses in the presence of 8 μg/ml of polybrene, and were selected in 1 μg/ml of puromycin at 48 hrs post-infection in their respective culture medium. B16-F10 cells were transfected with BPTF shRNA1, BPTF shRNA 2 or Neg shRNA vectors and stable transformants were selected with 2 ug/ml of puromycin.

[2] = test system: B16-F10 murine melanoma cells; assay: cDNA microarray gene expression profiling of B16-F10 clones; format: cell-based
Excerpt: Total RNA was extracted from cells using the RNeasy kit (Qiagen, Valencia, Calif.). Ten micrograms of total RNA, along with universal mouse reference RNA (Stratagene, Santa Clara, Calif.), was converted to aminoallyl-modified cDNA by oligo(dT)-primed polymerization using SuperScript II reverse transcriptase (Invitrogen), coupled to N-hydroxysuccinimidyl esters of Cy3 or Cy5 (Amersham Pharmacia, Pittsburgh, Pa.), and then hybridized to a microarray slide as described (Haqq et al., 2005). After linear normalization, log (base 2) transformation, and supervised hierarchical clustering, the resulting cluster data table was imported into the significance analysis of microarrays software package. Delta was chosen to limit the output gene list so that 5% predicted false positives would be included.

1205-Lu melanoma cells = assay: BRAF inhibitor sensitivity of 1205-Lu cells with modulated BPTF expression; format: cell-based, human; settings: for reduction in sensitivity to drug on overexpression of BPTF: 1205-Lu overexpressing BPTF; for increase in sensitivity of BPTF shRNA-expressing cells to drug: 1205-Lu, vs control shRNA-expressing cells
Protocol: (§3) Cell viability and colony formation were performed and cell cycle analysis was performed as described using common techniques in the art. Cells were treated with varying concentrations of vemurafenib for 72 hrs or dabrafenib (Chemitek, Indianapolis, Ind.) for 48 hrs or as indicated. DMSO was used as a vehicle.

BPTF [3] = assay: qRT-PCR of BPTF expression in 1205-Lu cells; format: cell-based; settings: 1205-Lu human melanoma cells (mutant BRAF)
Protocol: as §1, §2

[4] = test system: 1205-Lu human melanoma cells; assay: Cell cycle analysis, 1205-Lu; format: cell-based; settings: vs control shRNA vector
Protocol: as §3

[5] = test system: 1205-Lu human melanoma cells; assay: Cell survival assay, 1205-Lu; format: cell-based
Protocol: as §3

[6] = test system: 1205-Lu human melanoma cells; assay: Colony formation assay, 1205-Lu; format: cell-based; settings: p<0.02
Protocol: as §3

[7] = test system: 1205-Lu human melanoma cells; assay: Apoptosis, 1205-Lu; format: cell-based; settings: p<0.02
[8] = test system: 1205-Lu human melanoma cells; assay: Matrigel invasion assay, 1205-Lu; format: cell-based
Protocol: (§4) A Matrigel assay for tumor invasion was performed using routine techniques. For B16-F10, 1205-Lu and C8161.9 cells, insert chambers were coated with 15 μl matrigel at 6 mg/ml protein, 17 μl and 7 mg/ml for C8161.9 cells and 15 μl and 5 mg/ml for 1205-Lu and U251 cell lines.

[9] = test system: 1205-Lu human melanoma cells; assay: Subcutaneous tumor growth of 1205-Lu cells in nude mice; format: in vivo; settings: 1205-Lu in nude mice, vs control shRNA-expressing cells
Protocol: (§5) All animal care was in accordance with institutional guidelines and a protocol that was approved by the University of California San Francisco Committee on Animal Research and California Pacific Medical Center Research Institute. Groups of 45-day-old female C57B1/6 (Charles River) were inoculated by tail vein injection with 30,000 B16-F10 BPTF stables cells. 1×10^6 1205-Lu cells were injected by tail vain in nude mice. For subcutaneous injection 1×10^6 1205-Lu, B16-F10, or C8161.9 cells and 2×10^6 U251 cells were injected, respectively.

[10] = test system: 1205-Lu human melanoma cells; assay: Lung metastatic tumor burden after intravenous inoculation of 1205-Lu cells; format: in vivo; settings: nude mice
Protocol: as §5

BPTF [11] = assay: qRT-PCR of BPTF expression in U251 cells; format: cell-based; settings: U251 human GBM cells
Protocol: as §1, §2

U251 human GBM cells [12] = assay: Cell survival and colony formation, U251; format: cell-based
Protocol: as §3

U251 human GBM cells [13] = assay: Cell cycle analysis, U251; format: cell-based; settings: U251, p<0.01
Protocol: as §3

U251 human GBM cells [14] = assay: Apoptosis, U251; format: cell-based; settings: U251, p<0.02
U251 human GBM cells [15] = assay: Matrigel invasion assay, U251; format: cell-based
Protocol: as §4

BCL2, BCL-XL and CCND2 = assay: Expression of BCL2, BCL-XL and CCND2 in GBM cells; format: cell-based, human; settings: GBM cells (U251)
Protocol: as §1
(§6) Western blot analysis was performed. Target proteins were detected by using specific antibodies against BPTF (Bethyl Laboratories Montgomery, TX), BCL2, and GAPDH (Santa Cruz Biotechnology, Santa Cruz, Calif.), and ERK1/2, pERK1/2, CCND2, BCL-XL, p90RSK (Cell Signaling Technology, Danvers, Mass.).

[16] = test system: phosphorylated ERK1/2 and p90RSK; assay: Western blot of phosphorylated ERK1/2 and p90RSK in GBM cells; format: cell-based, human; settings: GBM cells (U251)
Protocol: as §6

U251 human GBM cells [17] = assay: Subcutaneous U251 tumor growth in nude mice; format: in vivo; settings: subcutaneous inoculation
Protocol: as §5

[18] = B16-F10 clones stably expressing shRNA vs control vector

For “BPTF shRNA 1: shRNA targeting BPTF, TGGCTGTGATCGGTGTCAGAATTGGTACC (SEQ ID NO:3); used for the murine cell line (listed as DNA, chemistry not fully specified)”, the “BPTF expression (qRT-PCR)” value (BPTF [1]) was “suppressed significantly”.

“BPTF shRNA 2: shRNA targeting BPTF, GGTGATGAAGCATAATGCTGTA ATAGAAC (SEQ ID NO:4); used for the murine cell line (GGTGATGAAGCATAATGCTGTAATAGAAC; listed as DNA, chemistry not fully specified)” was tested, and the “BPTF expression (qRT-PCR)” value (BPTF [1]) was “suppressed significantly”, the “Bcl-xl and Ccnd2 expression” value ([2]; B16-F10, microarray, confirmed by qRT-PCR and western blot) was “downregulated” and the “number of genes overexpressed” value [2, 18] was 1008 genes. The “number of genes with downregulated expression” value [2, 18] was 27 genes.

For `CCCS(=O)(=O)Nc1ccc(F)c(C(=O)c2c[nH]c3ncc(-c4ccc(Cl)cc4)cc23)c1F` [vemurafenib], the “reduction in sensitivity to drug on overexpression of BPTF” value (1205-Lu melanoma cells) was 2.5 fold and the “increase in sensitivity of BPTF shRNA-expressing cells to drug” value (1205-Lu melanoma cells) was 3.2 fold.

In the case of `CC(C)(C)c1nc(-c2cccc(NS(=O)(=O)c3c(F)cccc3F)c2F)c(-c2ccnc(N)n2)s1` [dabrafenib], the “reduction in sensitivity to drug on overexpression of BPTF” value (1205-Lu melanoma cells) is reported as 3.4 fold and the “increase in sensitivity of BPTF shRNA-expressing cells to drug” value (1205-Lu melanoma cells) is reported as 2.8 fold.

With “BPTF shRNA 3: shRNA targeting human BPTF, ATTTAGATTCATCATAAGGCG (SEQ ID NO:5) (listed as DNA, chemistry not fully specified)” the BPTF expression (BPTF [3]) was “significant suppression”, the cell cycle distribution [4] was “G1/G0 cell cycle arrest and a significant reduction in S-phase” and the cell survival [5] was “suppression”. The colony formation ability [6] was “suppression”, the apoptotic index [7] was “significantly increased” and the “invasiveness into Matrigel” value [8] was “significant decrease”. For the same compound, the “subcutaneous tumor cell growth” value [9] was “considerably suppressed”, the “reduction in the metastatic tumor burden in the lungs” value [10] was 66% and the BPTF expression (BPTF [11]) was “Stable suppression”. The “proliferation (cell survival and colony formation)” value (U251 human GBM cells [12]) was “significantly reduced”, the cell cycle distribution (U251 human GBM cells [13]) was “significant G1/G0 cell cycle arrest” and the apoptosis (U251 human GBM cells [14]) was “induction”. The invasiveness (U251 human GBM cells [15]) was “significantly reduced”, the “expression of BCL2, BCL-XL and CCND2” value (BCL2, BCL-XL and CCND2) was “suppression” and the “phosphorylated ERK1/2 and p90RSK” value [16] was “significant suppression”. The “U251 tumor cell growth” value (U251 human GBM cells [17]) was “highly significant reduction”.
